Reference: US8624053B2, “Method to produce a stable dry ionic-bonded creatine α ketoglutarate of high oral absorbability” (priority 2012, dated 2014)

Test system: athletes
Details: about half the dose provided from other preparations
Description: (The actual dose depended on the athlete.)
The performance evaluations were made by experienced coaches, overlooking standard athletic tasks.

creatine α-ketoglutarate [product of the invention]
time after delivery to peak performance: ten
